Key:
[1] = molecular target: T1, cloned human H3 receptors, stably expressed in SK-N-MC cells (Homo sapiens, UniProt Q9Y5N1); assay: H3 Receptor Binding (Human); conditions: average of results obtained
T1 construct: expressed in transfected cells; host or cells: SK-N-MC cells
Protocol: Binding of compounds to the cloned human H3 receptors, stably expressed in SK-N-MC cells, was performed as described by Barbier, A. J. et al. (Br. J. Pharmacol. 2004, 143(5), 649-661). Data for compounds tested in this assay are presented in Table 1, as an average of results obtained.

rat H3 receptor = molecular target: T2, rat H3 receptor (Rattus norvegicus, UniProt Q9QYN8); assay: Cyclic AMP Accumulation (rat H3); assay type: cell-based; conditions: SK-N-MC cells expressing reporter construct and rat H3 receptor; Example 1 tested as TFA salt; read-out: Rat pA2 (converted)
T2 construct: expressed in transfected cells; host or cells: SK-N-MC cells (subline with reporter construct)
T2 sequence (Q9QYN8 whole entry): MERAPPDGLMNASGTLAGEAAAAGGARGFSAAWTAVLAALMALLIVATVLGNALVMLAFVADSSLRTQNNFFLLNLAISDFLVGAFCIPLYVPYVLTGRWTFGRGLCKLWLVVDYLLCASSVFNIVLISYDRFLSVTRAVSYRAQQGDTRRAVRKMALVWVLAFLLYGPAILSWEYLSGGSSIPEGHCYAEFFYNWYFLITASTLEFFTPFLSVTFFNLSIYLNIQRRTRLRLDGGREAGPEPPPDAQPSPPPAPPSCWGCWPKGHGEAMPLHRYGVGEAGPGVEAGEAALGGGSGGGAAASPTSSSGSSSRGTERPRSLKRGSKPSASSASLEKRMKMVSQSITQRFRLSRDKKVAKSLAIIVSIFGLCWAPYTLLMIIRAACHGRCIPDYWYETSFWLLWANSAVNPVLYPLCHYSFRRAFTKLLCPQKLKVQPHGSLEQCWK
Protocol: (§1) Sublines of SK-N-MC cells were created that expressed a reporter construct and either the human or rat H3 receptor. The pA2 values were obtained as described by Barbier et al. (2004). Example 1 was tested as the corresponding TFA salt.

human H3 receptor = molecular target: T3, human H3 receptor (Homo sapiens, UniProt Q9Y5N1); assay: Cyclic AMP Accumulation (human H3); assay type: cell-based; conditions: SK-N-MC cells expressing reporter construct and human H3 receptor, Example 1 tested as TFA salt; for Kb: read-out: Human pA2 (converted)
T3 construct: expressed in transfected cells; host or cells: SK-N-MC cells
T3 sequence (Q9Y5N1 whole entry): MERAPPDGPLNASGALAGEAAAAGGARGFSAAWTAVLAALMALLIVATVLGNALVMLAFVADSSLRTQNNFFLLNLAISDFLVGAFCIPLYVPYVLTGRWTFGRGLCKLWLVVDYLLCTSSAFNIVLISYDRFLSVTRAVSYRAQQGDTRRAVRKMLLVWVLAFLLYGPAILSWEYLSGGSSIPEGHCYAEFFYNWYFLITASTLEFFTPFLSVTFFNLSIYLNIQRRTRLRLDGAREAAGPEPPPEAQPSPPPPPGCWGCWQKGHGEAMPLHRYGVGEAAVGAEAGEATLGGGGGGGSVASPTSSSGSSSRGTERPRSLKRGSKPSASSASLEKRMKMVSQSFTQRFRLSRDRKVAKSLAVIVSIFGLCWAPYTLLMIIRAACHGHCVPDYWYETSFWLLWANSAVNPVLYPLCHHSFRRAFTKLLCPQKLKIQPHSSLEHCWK
Protocol: as §1

[2] = molecular target: T4, rat H3 receptor (rat brain membranes) (Rattus norvegicus, UniProt Q9QYN8); assay: H3 Receptor Binding (Rat); conditions: rat brain without cerebellum membranes; 0.8 nM N-[3H]-alpha-methylhistamine; IC50 converted to Ki (Kd 0.8 nM); tested as the corresponding TFA salt
T4 construct: A rat brain without cerebellum (Zivic Laboratories Inc., Pittsburgh, Pa.) was homogenized; tissue Zivic Laboratories Inc; host or cells: rat brain without cerebellum, membranes
T4 sequence (Q9QYN8 whole entry): as the sequence (Q9QYN8 whole entry) above
Protocol: A rat brain without cerebellum (Zivic Laboratories Inc., Pittsburgh, Pa.) was homogenized in 50 mM Tris-HCl/5 mM EDTA and centrifuged at 1,000 rpm for 5 min. The supernatant was removed and recentrifuged at 15,000 rpm for 30 min. Pellets were rehomogenized in 50 mM Tris/5 mM EDTA (pH 7.4). Membranes were incubated with 0.8 nM N—[^3H]-α-methylhistamine plus/minus test compounds for 60 min at 25° C. and harvested by rapid filtration over GF/C glass fiber filters (pretreated with 0.3% polyethylenimine) followed by four washes with buffer. Nonspecific binding was defined in the presence of 100 μM histamine. Inhibitory concentration (responsible for 50% inhibition of maximal effect, IC50) values were determined by a single site curve-fitting program (GraphPad, San Diego, Calif.) and converted to Ki values based on a N—[^3H]-α-methylhistamine dissociation constant (Kd) of 0.8 nM. The following results were obtained: Example 2, 28 nM; Example 6, 50 nM (tested as the corresponding TFA salt).

T1 sequence (Q9Y5N1 whole entry): as the sequence (Q9Y5N1 whole entry) above

Row | Compound | Ki [1] [nM] | further results
1 | O=C(c1cc(Oc2ccccc2)ccn1)N1CCCN(C2CCC2)CC1 [Example 13, (4-Cyclobutyl-[1,4]diazepan-1-yl)-(4-phenoxy-pyridin-2-yl)-methanone] | 11 | 
2 | O=C(c1cncc(Sc2ccncc2)c1)N1CCCN(C2CCC2)CC1 [Example 12, (4-Cyclobutyl-[1,4]diazepan-1-yl)-[5-(pyridin-4-ylsulfanyl)-pyridin-3-yl]-methanone] | 1.8 | 
3 | O=C(c1cncc(Sc2ncccn2)c1)N1CCCN(C2CCC2)CC1 [Example 11, (4-Cyclobutyl-[1,4]diazepan-1-yl)-[5-(pyrimidin-2-ylsulfanyl)-pyridin-3-yl]-methanone] | 18 | 
4 | CC(C)Oc1cncc(C(=O)N2CCCN(C3CCC3)CC2)c1 [Example 7, (4-Cyclobutyl-[1,4]diazepan-1-yl)-(5-isopropoxy-pyridin-3-yl)-methanone] | 11 | 
5 | O=C(c1cncc(Oc2ccccc2)c1)N1CCCN(C2CCC2)CC1 [Example 4, (4-Cyclobutyl-[1,4]diazepan-1-yl)-(5-phenoxy-pyridin-3-yl)-methanone] | 3.4 | 
6 | O=C(c1cncc(Sc2ccccn2)c1)N1CCCN(C2CCC2)CC1 [Example 10, (4-Cyclobutyl-[1,4]diazepan-1-yl)-[5-(pyridin-2-ylsulfanyl)-pyridin-3-yl]-methanone] | 6.6 | 
7 | O=C(c1cncc(Sc2ccc(F)cc2)c1)N1CCCN(C2CCC2)CC1 [Example 8, (4-Cyclobutyl-[1,4]diazepan-1-yl)-[5-(4-fluoro-phenylsulfanyl)-pyridin-3-yl]-methanone] | 2.9 | Kb (rat H3 receptor): 43.7 nM; Kb (human H3 receptor): 3.98 nM
8 | COc1cccc(Oc2cncc(C(=O)N3CCCN(C4CCC4)CC3)c2)c1 [Example 5, (4-Cyclobutyl-[1,4]diazepan-1-yl)-[5-(3-methoxy-phenoxy)-pyridin-3-yl]-methanone] | 3.4 | 
9 | O=C(c1cncc(Oc2cccc(F)c2)c1)N1CCCN(C2CCC2)CC1 [Example 6, (4-Cyclobutyl-[1,4]diazepan-1-yl)-[5-(3-fluoro-phenoxy)-pyridin-3-yl]-methanone] | 1 | Kb (rat H3 receptor): 20.4 nM; Ki [2]: 50 nM; Kb (human H3 receptor): 2.4 nM
10 | O=C(c1cc(Oc2ccc(F)cc2)ccn1)N1CCCN(C2CCC2)CC1 [Example 14, (4-Cyclobutyl-[1,4]diazepan-1-yl)-[4-(4-fluoro-phenoxy)-pyridin-2-yl]-methanone] | 17 | 
11 | O=C(c1cncc(Oc2ccc(F)cc2)c1)N1CCCN(C2CCC2)CC1 [Example 1, (4-Cyclobutyl-[1,4]diazepan-1-yl)-[5-(4-fluoro-phenoxy)-pyridin-3-yl]-methanone] | 3.6 | Kb (rat H3 receptor): 28.8 nM; Human pA2 (human H3 receptor): 8.87
12 | CC(C)Sc1cncc(C(=O)N2CCCN(C3CCC3)CC2)c1 [Example 9, (4-Cyclobutyl-[1,4]diazepan-1-yl)-(5-isopropylsulfanyl-pyridin-3-yl)-methanone] | 3 | 
13 | N#Cc1cccc(Oc2cncc(C(=O)N3CCCN(C4CCC4)CC3)c2)c1 [Example 3, 3-[5-(4-Cyclobutyl-[1,4]diazepane-1-carbonyl)-pyridin-3-yloxy]-benzonitrile] | 1.9 | Kb (rat H3 receptor): 6.17 nM; Kb (human H3 receptor): 0.955 nM
14 | O=C(c1cc(Sc2ccc(F)cc2)ccn1)N1CCCN(C2CCC2)CC1 [Example 15, (4-Cyclobutyl-[1,4]diazepan-1-yl)-[4-(4-fluoro-phenylsulfanyl)-pyridin-2-yl]-methanone] | 12 | 
15 | O=C(c1cncc(Oc2cccc(Cl)c2)c1)N1CCCN(C2CCC2)CC1 [Example 2, [5-(3-Chloro-phenoxy)-pyridin-3-yl]-(4-cyclobutyl-[1,4]diazepan-1-yl)-methanone] | 3.2 | Ki [2]: 28 nM

Source: patent US20090131417A1, “SUBSTITUTED PYRIDYL AMIDE COMPOUNDS AS MODULATORS OF THE HISTAMINE H3 RECEPTOR” (priority 2007, published 2009)
